What was measured:
Assay in all cases: relative viability (nuclei count vs DMSO), 5 days (fraction); higher = more cells survive
Venetoclax + Pemetrexed = compound: CC1(C)CCC(CN2CCN(c3ccc(C(=O)NS(=O)(=O)c4ccc(NCC5CCOCC5)c([N+](=O)[O-])c4)c(Oc4cnc5[nH]ccc5c4)c3)CC2)=C(c2ccc(Cl)cc2)C1 [Venetoclax] + Nc1nc2[nH]cc(CCc3ccc(C(=O)N[C@@H](CCC(=O)O)C(=O)O)cc3)c2c(=O)[nH]1 [Pemetrexed] (partner 0.2 µM)
In short: (§1)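 After 5 days of treatment, lung cancer cells in 1536-well plates were fixed and stained in a single step (final 0.05% Triton X-100, 1% formaldehyde, 1 ug/ml Hoechst) and their nuclei counted on 4× images. Treatment had been applied by pin tool the day after seeding as one drug alone or as a fixed anchor-drug dose with five library-drug doses (not always all listed) in √10 steps. Relative viability is the nuclei count of treated wells divided by that of vehicle wells, and values are medians of duplicate plates.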

Venetoclax + Navitoclax = compound: CC1(C)CCC(CN2CCN(c3ccc(C(=O)NS(=O)(=O)c4ccc(NCC5CCOCC5)c([N+](=O)[O-])c4)c(Oc4cnc5[nH]ccc5c4)c3)CC2)=C(c2ccc(Cl)cc2)C1 [Venetoclax] + CC1(C)CCC(c2ccc(Cl)cc2)=C(CN2CCN(c3ccc(C(=O)NS(=O)(=O)c4ccc(N[C@H](CCN5CCOCC5)CSc5ccccc5)c(S(=O)(=O)C(F)(F)F)c4)cc3)CC2)C1 [Navitoclax] (partner 0.5 µM)
In short: as §1

Venetoclax + Bortezomib = compound: CC1(C)CCC(CN2CCN(c3ccc(C(=O)NS(=O)(=O)c4ccc(NCC5CCOCC5)c([N+](=O)[O-])c4)c(Oc4cnc5[nH]ccc5c4)c3)CC2)=C(c2ccc(Cl)cc2)C1 [Venetoclax] + CC(C)C[C@H](NC(=O)[C@H](Cc1ccccc1)NC(=O)c1cnccn1)B(O)O [Bortezomib] (partner 0.002 µM)
In short: as §1

Selumetinib + Phenformin = compound: Cn1cnc2c(F)c(Nc3ccc(Br)cc3Cl)c(C(=O)NOCCO)cc21 [Selumetinib] + N=C(N)NC(=N)NCCc1ccccc1 [Phenformin] (partner 250 µM)
In short: as §1

Cell Line	relative viability (Venetoclax + Pemetrexed; first compound 0.01 µM)	relative viability (Venetoclax + Pemetrexed; first compound 0.03162 µM)	relative viability (Venetoclax + Pemetrexed; first compound 0.1 µM)	relative viability (Venetoclax + Pemetrexed; first compound 0.3162 µM)	relative viability (Venetoclax + Pemetrexed; first compound 1 µM)	relative viability (Venetoclax + Navitoclax; first compound 0.01 µM)	relative viability (Venetoclax + Navitoclax; first compound 0.03162 µM)	relative viability (Venetoclax + Navitoclax; first compound 0.1 µM)	relative viability (Venetoclax + Navitoclax; first compound 0.3162 µM)	relative viability (Venetoclax + Navitoclax; first compound 1 µM)	relative viability (Venetoclax + Bortezomib; first compound 0.01 µM)	relative viability (Venetoclax + Bortezomib; first compound 0.03162 µM)	relative viability (Venetoclax + Bortezomib; first compound 0.1 µM)	relative viability (Venetoclax + Bortezomib; first compound 0.3162 µM)	relative viability (Venetoclax + Bortezomib; first compound 1 µM)	relative viability (Selumetinib + Phenformin; first compound 0.02 µM)	relative viability (Selumetinib + Phenformin; first compound 0.06325 µM)	relative viability (Selumetinib + Phenformin; first compound 0.2 µM)	relative viability (Selumetinib + Phenformin; first compound 0.6325 µM)
LC-2-ad	0.283	0.27	0.256	0.262	0.259	0.441	0.4	0.531	0.52	0.466	0.834	1.02	0.968	0.907	0.94	0.557	0.544	0.532	0.575
LCLC-97TM1	0.165	0.182	0.167	0.163	0.153	–	0.608	0.44	0.361	0.446	–	0.99	0.609	1.02	0.403	0.44	0.43	0.387	0.399
LOU-NH91	0.362	0.365	0.392	0.327	0.337	0.594	0.832	0.676	0.77	0.659	0.487	0.477	0.558	0.473	0.456	0.674	0.69	0.688	0.661
LU99A	0.177	0.239	0.163	0.172	0.178	0.783	0.936	0.708	0.833	0.741	1.13	1.32	0.925	1.19	1.23	0.905	0.799	0.85	0.835
LXF-289	0.986	0.948	0.782	0.873	0.79	0.926	0.988	0.952	0.868	0.829	1.03	0.966	1	1.01	0.87	0.52	0.501	0.442	0.434
NCI-H23	0.671	0.747	0.597	0.76	0.588	0.869	0.774	0.774	0.82	0.704	0.95	0.952	1.06	1.07	0.9	0.834	0.706	0.774	0.519
NCI-H322M	0.606	0.581	0.598	0.627	0.596	1.25	1.11	1.11	1.35	1.16	1.37	1.18	1.27	1.2	1.2	0.668	0.561	0.57	0.574
NCI-H441	0.274	0.271	0.243	0.253	0.244	0.659	1.09	0.627	0.482	0.47	0.651	0.91	0.532	0.451	0.476	0.886	0.674	0.667	0.468
NCI-H460	0.062	0.0571	0.0565	0.0577	0.064	0.996	1.16	1.1	1.07	1.09	1.06	1.06	1.06	1.03	0.904	0.479	0.397	0.309	0.176
NCI-H520	0.781	0.73	–	0.626	0.646	1.14	1.27	1.06	1.2	0.962	0.657	0.708	0.431	0.628	0.494	0.616	0.659	0.671	0.784
NCI-H596	0.473	0.495	0.461	0.488	0.486	0.892	0.935	0.916	0.887	0.919	1.01	0.857	0.979	1.14	1.14	0.894	0.695	0.751	0.564
NCI-H647	0.164	0.192	0.206	0.178	0.178	1.16	1.26	1.22	1.16	0.901	1.08	1.2	–	0.944	1.02	0.592	0.488	0.512	0.414
NCI-H838	0.246	0.261	0.264	0.234	0.24	1.21	1.14	1.1	1.11	1.11	0.949	0.957	0.73	0.801	0.797	0.502	0.481	0.505	0.474
NCI-H1355	1.02	1.08	1.01	1.08	1.01	0.892	0.972	0.804	0.915	0.897	1.27	1.23	1.2	1.11	1.18	0.435	0.43	0.391	0.373
NCI-H1437	0.309	0.316	0.328	0.309	0.308	1.07	1.09	1.04	1.04	0.977	0.451	0.572	0.475	0.42	0.492	0.269	0.232	0.216	0.243
NCI-H1650	0.343	0.361	0.405	0.431	0.356	1.14	1.3	–	1.02	0.968	0.217	0.218	–	0.205	0.184	0.424	0.371	0.444	0.35
NCI-H1651	0.628	0.674	0.561	0.529	0.57	1.06	0.964	0.964	1.06	1.09	1.02	0.952	1.03	0.976	0.885	0.329	0.264	0.281	0.298

Cell Line	relative viability (Venetoclax + Pemetrexed; first compound 0.01 µM)	relative viability (Venetoclax + Pemetrexed; first compound 0.03162 µM)	relative viability (Venetoclax + Pemetrexed; first compound 0.1 µM)	relative viability (Venetoclax + Pemetrexed; first compound 0.3162 µM)	relative viability (Venetoclax + Pemetrexed; first compound 1 µM)	relative viability (Venetoclax + Navitoclax; first compound 0.01 µM)	relative viability (Venetoclax + Navitoclax; first compound 0.03162 µM)	relative viability (Venetoclax + Navitoclax; first compound 0.1 µM)	relative viability (Venetoclax + Navitoclax; first compound 0.3162 µM)	relative viability (Venetoclax + Navitoclax; first compound 1 µM)	relative viability (Venetoclax + Bortezomib; first compound 0.01 µM)	relative viability (Venetoclax + Bortezomib; first compound 0.03162 µM)	relative viability (Venetoclax + Bortezomib; first compound 0.1 µM)	relative viability (Venetoclax + Bortezomib; first compound 0.3162 µM)	relative viability (Venetoclax + Bortezomib; first compound 1 µM)	relative viability (Selumetinib + Phenformin; first compound 0.02 µM)	relative viability (Selumetinib + Phenformin; first compound 0.06325 µM)	relative viability (Selumetinib + Phenformin; first compound 0.2 µM)	relative viability (Selumetinib + Phenformin; first compound 0.6325 µM)
NCI-H1666	0.726	0.916	0.919	0.805	0.799	0.616	0.986	0.978	0.971	0.901	0.773	0.931	0.676	0.706	0.593	0.506	0.534	0.569	0.565
NCI-H1734	0.417	0.459	0.399	0.422	0.393	0.767	1	0.78	0.811	0.787	0.815	1.07	0.921	0.946	0.914	0.351	0.298	0.345	0.248
NCI-H1755	0.39	0.475	0.397	0.441	0.407	1.01	0.988	0.96	0.999	0.925	0.993	1.01	0.911	0.965	0.943	0.628	0.594	0.584	0.53
NCI-H1792	0.416	0.998	0.7	0.815	0.618	0.649	0.71	0.696	0.671	0.601	0.764	0.928	1.05	0.924	0.86	0.192	–	0.144	0.229
NCI-H1915	0.405	0.499	0.484	0.517	0.476	0.763	0.79	0.733	0.788	0.779	0.972	0.965	0.908	0.971	0.919	0.423	0.371	0.271	0.284
NCI-H1975	0.261	0.279	0.276	0.309	0.281	1.15	1.15	1.05	1.21	1.11	0.424	0.393	0.35	0.344	0.299	0.426	0.378	0.379	0.34
NCI-H1993	0.565	0.579	0.599	0.57	0.668	0.971	0.904	0.944	0.962	0.891	1.05	1.19	0.988	1.04	1.02	0.506	0.569	0.466	0.551
NCI-H2009	0.989	1.04	1.05	1	0.961	1.14	1.14	1.13	1.15	1.05	1.09	0.951	1.03	0.991	1.02	0.428	0.359	0.29	0.217
NCI-H2023	0.238	0.243	0.263	0.264	0.203	0.984	0.987	0.924	0.96	0.86	0.964	1	1.03	1.01	0.853	0.373	0.399	0.381	0.341
NCI-H2085	0.756	0.948	0.86	0.823	0.798	0.952	1.16	1.17	1.26	1.06	0.976	1.14	1.07	0.923	0.946	0.637	0.623	0.602	0.481
NCI-H2087	0.7	0.65	0.785	0.707	0.668	1.01	0.982	0.921	0.942	0.974	0.808	0.766	1	0.83	0.753	0.367	0.279	0.294	0.214
NCI-H2126	0.748	0.737	0.67	0.653	0.611	0.886	0.853	0.851	0.808	0.855	1.05	1.12	1.09	1.14	1.11	0.526	0.453	0.466	0.434
NCI-H2228	0.341	0.331	0.36	0.272	0.343	0.932	1.03	0.927	0.836	0.999	1.04	0.99	0.972	1.21	1.19	0.254	0.284	0.219	0.21
NCI-H2347	0.486	0.425	0.437	0.438	0.444	0.793	0.876	0.807	0.855	0.819	0.927	1.5	1.14	1.03	1.02	0.401	0.256	0.187	0.283
NCI-H2405	0.98	1.16	0.979	1.06	0.963	0.865	1.02	–	0.941	0.91	0.956	1.09	0.94	0.982	0.907	0.344	0.319	0.296	0.164
NCI-H3122	0.179	0.2	0.199	0.188	0.198	1.11	1.03	1.03	1.01	1.01	1.06	0.968	1.01	0.985	1.02	0.386	0.305	0.287	0.286

From the supplement of paper PMC10307832
